Test results from PMC9942557, “Bolaamphiphile Analogues of 12-bis-THA Cl2 Are Potent Antimicrobial Therapeutics with Distinct Mechanisms of Action against Bacterial, Mycobacterial, and Fungal Pathogens” (mSphere, 2022).
Read-outs that look alike come from different tables or passages of the source.

Experiments:
[1] = system: Pseudomonas aeruginosa NCTC 13437; test: Broth microdilution MIC; assay type: cell-based
[2] = system: VR Enterococcus faecalis NCTC 12201; test: Broth microdilution MIC; assay type: cell-based
[3] = system: pBR322 plasmid, wheat germ topoisomerase I; test: DNA unwinding assay; assay type: biochemical; conditions: for DNA intercalation: relaxed pBR322 plasmid plus topoisomerase I (Fig. 2A); for relaxation of supercoiled plasmid through the action of topoisomerase I: supercoiled pBR322 plasmid, bolalipid present (Fig. 2B)
Description: A DNA unwinding assay kit (Inspiralis Limited, Norwich, UK) consists of wheat germ topoisomerase I assay buffer (50 mM Tris HCl [pH 7.9], 1 mM EDTA, 1 mM dithiothreitol [DTT], 20% [vol/vol] glycerol, 50 mM NaCl) dilution buffer (50 mM Tris HCl [pH 7.9], 1 mM EDTA, 1 mM DTT, 50% [vol/vol] glycerol, 500 mM NaCl), wheat germ topoisomerase I (5 U/μL), supercoiled plasmid pBR322 (1 μg/μL), and relaxed plasmid pBR322 (1 μg/μL). For the experiments, 2× DNA loading buffer containing 40% (wt/vol) sucrose, 100 mM Tris-HCl (pH 8), 1 mM EDTA, and 0.5 mg/mL bromophenol blue was prepared. The enzyme was diluted 1/5 with dilution buffer before being used in the assay. For the assay, 3 mM stock solutions in methanol of the compounds to be tested were prepared. An appropriate number of 1.5-mL Eppendorf tubes were filled with 25 μL of a mix consisting of assay buffer (15 μL of buffer per sample), supercoiled or relaxed pBR322 (0.5 μg/assay), and ultrapure water. In the first two tubes, 1 μL of methanol was added to test the effect of the solvent on both the plasmid and the enzyme. Subsequently, 1 μL of the test compounds was added to the remaining tubes, and the tubes briefly vortexed and incubated at room temperature for 5 min. After that, 2 μL of dilution buffer was added in the first tube, whereas 2 μL of enzyme diluted solution was added to the remaining tubes. The tubes were gently vortexed and incubated for 30 min at 37°C in a water bath. After this time, the reaction was stopped by adding 20 μL of water and 50 μL of water-saturated butanol to each tube. The tubes were vortexed and centrifuged for 1 min at 14,800 rpm. The lower aqueous layer of each tube was removed and transferred to a new tube containing 30 μL of chloroform-isoamyl alcohol (24/1) and 50 μL of loading buffer. The tubes were briefly vortexed and centrifuged for 1 min. Twenty microliters of the upper layer of each tube was loaded onto a 1% (wt/vol) agarose gel, and the gel was run at 80 V for approximately 4 h in Tris-acetate-EDTA buffer (40 mM Tris acetate and 1 mM EDTA). Subsequently, the gel was stained with ethidium bromide (1 μg/mL) for 15 min, briefly destained (5 to 10 min) in water, and visualized with a Multi-Doc Imaging M-26X UVP transilluminator.

[4] = Patch-clamp conductance in model membranes; conditions: bilayers composed of DPhPG
Description: Giant unilamellar vesicles (GUVs) composed of DiPhytanoly PhosphatidylGlycerol (DPhPG) were prepared in the presence of 1 M sorbitol by the electroformation method in an indium-tin oxide (ITO)-coated glass chamber connected to the Nanion Vesicle Prep Pro setup (Nanion Technologies GmbH, Munich, Germany) using a 3-V peak-to-peak AC voltage at a frequency of 5 Hz for 140 min at 37°C ([30][–][32]). Bilayers were formed by adding the GUV solution to a buffer containing 250 mM KCl, 50 mM MgCl2, and 10 mM HEPES (pH 7.00) onto an aperture in a borosilicate chip (Port-a-Patch; Nanion Technologies) and applying 7,000 to 9,000 Pa negative pressure, resulting in a solvent-free membrane with a resistance in the GΩ range. […] After formation, a small amount of bolalipid stock solution (in water) was added to 50 μL of buffer solution in order to obtain its active concentration. All the experiments were carried out with a positive holding potential of 50 mV. […] For all the experiments, a minimum of 6 concordant repeats were done. Current traces were recorded at a sampling rate of 50 kHz using an EPC-10 amplifier from HEKA Elektronik (Lambrecht, Germany). The system was computer controlled by PatchControl software (Nanion) and GePulse (Michael Pusch, Genoa, Italy [http://users.ge.ibf.cnr.it/pusch/software-mik.htm]). […]

Candida auris TGD1912 = test: MIC; assay type: cell-based
M. tuberculosis Bleupan [5] = test: Selectivity index (toxicity/potency); assay type: cell-based, Mycobacterium tuberculosis; conditions: ratio of average toxicity (HEK293 and HeLa) to potency
Description: TABLE 3 Selectivity indices of bolaamphiphiles | column: Selectivity of^a: / 12-bis-THA Cl2; Selectivity of^a: / Dequalinium; Selectivity of^a: / Penta-bola; Selectivity of^a: / Octa-bola; Selectivity of^a: / Octa-C8; Selectivity of^a: / Octa-C6

[6] = system: Prevotella bivia NCTC 11156; test: Anaerobic broth microdilution MIC (BHI, 5% horse serum); assay type: cell-based; conditions: NCTC11156, read-out: MIC
G. vaginalis NCTC 10287 = test: as above; assay type: cell-based, Gardnerella vaginalis; conditions: Gardnerella vaginalis, NCTC10287, read-out: MIC
G. vaginalis KC1 = test: as above; assay type: cell-based, Gardnerella vaginalis; conditions: Gardnerella vaginalis, read-out: MIC
M. tuberculosis Bleupan [7] = assay type: in vivo, Galleria mellonella
[8] = system: Pseudomonas aeruginosa RP73; test: In vitro pharmacodynamic (PD) assay; conditions: P. aeruginosa RP73; combination 2:1 (wt/wt)
Description: In vitro PD assays were performed with Pseudomonas aeruginosa RP73 cultured in Roswell Park Memorial Institute 1640 medium (RPMI) supplemented with 5% Mueller-Hinton broth (MHB) ([35]). Bacteria were cultured overnight in 10 mL of RPMI–5% MHB at 37°C and diluted just prior to plate inoculation to an OD600 of 0.002. Stock solutions of colistin or tobramycin were prepared in sterile MilliQ water at a concentration of 200× MIC. Octa-bola was prepared in methanol at 2,000× MIC and diluted in water to 200× MIC. A dilution series was made in the top row of a polypropylene 96-well plate from 200× MIC to 0.2× MIC in a volume of 100 μL, to which 100 μL of the bacterial suspension was added to have a total of 1 × 10^6 log-phase CFU in 200 μL. The first time zero sample was taken <30 s after addition of bacteria to the plate, with further samples taken at appropriate intervals thereafter. […] Fifteen microliters was removed from each well, diluted 1:1,000 in phosphate-buffered saline, and plated onto RPMI–5% MH agar plates. The plates were incubated at 37°C overnight for CFU counting.
CFU data were log10 transformed, and the bacterial net growth rate was determined from the increase or decrease in CFU during the time of exposure to the antibiotics as the coefficient of a linear regression of log10 CFU as a function of time. The intercept of the regression was fixed by forcing the regression lines through the first CFU measurement (0 min) at a given antimicrobial concentration. The pharmacodynamic function according to Regoes et al. ([36]) describes the relationship between bacterial net growth rate (ψ) and the concentration of an antimicrobial (a): ψmax − ([ψmax − ψmin][a/zMIC])^κ/([a/zMIC]^κ − [ψmin/ψmax]). Fitting this function to the net bacterial growth rates in OriginPro 2020 (OriginLab Corporation, Northampton, MA) generates the parameters ψmin and ψmax (minimum and maximum growth rates, respectively), zMIC (the pharmacodynamic MIC), and κ (a measure of the cooperativity). […]

[9] = VR Enterococcus faecalis NCTC 12201
[10] = NCTC12201, VR Enterococcus faecalis NCTC 12201, read-out: MIC

Row | Structure (SMILES) | MIC [1] | MIC ([2]; Enterococcus faecalis, NCTC12201) | DNA intercalation [3] | relaxation of supercoiled plasmid through the action of topoisomerase I [3] | MIC [2, 9] | concentration required to induce any conductance [4] | MIC (Candida auris TGD1912) | MIC ([1]; NCTC13437, read-out: MIC) | MIC [2, 10] | Selectivity index (M. tuberculosis Bleupan [5]) | MIC [6] | MIC (G. vaginalis NCTC 10287) | MIC (G. vaginalis KC1) | survival (M. tuberculosis Bleupan [7]; 0.1 mg/kg) | survival (M. tuberculosis Bleupan [7]; higher or lower doses than 0.1 mg/kg) | infected larvae rescued (M. tuberculosis Bleupan [7]; 1 mg/kg) | bactericidal activity (minimum growth rate, ψmin) [8]
1 | Cc1c(N)c2ccccc2[n+](CCCCCCCCCCCC[n+]2c(C)c(C)c(N)c3ccccc32)c1C [Quino-bola] | > 32 µg/mL | 2 µg/mL | intercalators | not observed |  |  |  |  |  |  |  |  |  |  |  |  | 
2 | Nc1c2c([n+](CCCCCCCCCCCC[n+]3c4c(c(N)c5ccccc53)CCCC4)c3ccccc13)CCCC2 [12-bis-THA Cl2, 12,12′-(Dodecane-1,12-diyl)-bis-(9-amino-1,2,3,4-tetrahydroacridinium) chloride] | 32 µg/mL |  | intercalators | not observed | 1 µg/mL | 90 µM |  |  |  |  |  |  |  |  |  |  | 
3 | Nc1c2c([n+](CCCCCCCCCCCC[n+]3c4c(c(N)c5ccccc53)CCC4)c3ccccc13)CCC2 [Penta-bola] | >32 µg/mL |  | intercalators | not observed | 1 µg/mL |  | 2 µg/mL |  |  |  |  |  |  |  |  |  | 
4 | Cc1cc(N)c2ccccc2[n+]1CCCCCCCCCC[n+]1c(C)cc(N)c2ccccc21 [Dequalinium, dequalinium chloride, reference compound] |  |  | intercalators | not observed |  | 90 µM |  | > 32 µg/mL | 16 µg/mL | 6.35 | 2 µg/mL | 2 µg/mL | 2 µg/mL | lower survival | indifferent |  | 
5 | Nc1c2c([n+](CCCCCCCCCCCC[n+]3c4c(c(N)c5ccccc53)CCCCCC4)c3ccccc13)CCCCCC2 [Octa-bola] |  |  | intercalation is reduced if not eliminated | not observed |  |  |  | 32 µg/mL | 1 µg/mL | 17.3 |  |  |  |  |  | about half | strongly bactericidal, albeit only at the highest concentration tested
